Our source for the inhibition and IC50 values is ChEMBL document CHEMBL1123244, “Synthesis and aldose reductase inhibitory activity of substituted 2-oxoquinoline-1-acetic acid derivatives” (J Med Chem, 1986).

As usually defined, the inhibition is the share of the control response that was lost under treatment. One may read the IC50 as the concentration needed to halve the response being measured.

Each structure is given as a SMILES string. Activity calls are given as the source filed them. No cut-off for these calls is given here.

For one experiment, the target named is Aldo-keto reductase family 1 member B1 (Rattus norvegicus) (UniProt P07943). The experiment in a line: Compound was tested for inhibition of crude aldose reductase obtained from rat lens, at the concentration of 100 uM.
Turning to `Cc1cc(=O)n(C)c2ccccc12`, the inhibition worked out at 42%.
Same read-out and setting: as for `COc1ccc2nc(O)ccc2c1`, the figure is 25.8%; as for `Cc1cc(=O)[nH]c2ccccc12`, 24%.
`CC(=O)Oc1cccc2ccc(O)nc12` yielded an inhibition of 9.5%.

A further experiment concerns the target Aldo-keto reductase family 1 member B1 (Rattus norvegicus, UniProt P07943). The experiment in a line: Inhibition of crude aldose reductase of rat lens.
`Cc1cc(=O)n(CC(=O)O)c2ccccc12` gave an IC50 of 6 µM. This counts as single-digit micromolar.
On the same count and under the same terms, the value for `COc1ccc2c(ccc(=O)n2CC(=O)O)c1` was 0.91 µM; that for `Cc1cc(=O)n(CCC(=O)O)c2ccccc12` was 110 µM.
Consider `COc1ccc2c(ccc(=O)n2C(C)C(=O)O)c1` (stereo unspecified), for which the IC50 worked out at 590 µM. Against the preceding compound, the IC50 is about 5.4-fold higher.
`O=C(O)Cn1c(=O)ccc2cc(O)ccc21` gave an IC50 of 2.4 µM. This IC50 lies about 250-fold lower than the previous one.
The compound `Cc1cc(=O)n(C(C)C(=O)O)c2ccccc12` (stereo unspecified) displayed an IC50 of 470 µM. Against the preceding compound, the IC50 is about 200-fold higher.
The same measure, in the same setting: as for `O=C(O)CN1C(=O)c2cccc3cccc(c23)C1=O` [ALRESTATIN], the figure is 1.5 µM.
Compound `Cc1cc(=O)n(CC(=O)O)c2ccc([N+](=O)[O-])cc12` displayed an IC50 of 0.45 µM.
Same read-out and setting: the value for `O=C(O)Cn1c(=O)ccc2cccc(O)c21` was 3.3 µM; that for `CC(C(=O)O)n1c(=O)ccc2cccc(O)c21` (stereo unspecified) was 33 µM.

A further experiment has as its target Aldo-keto reductase family 1 member B1 (Rattus norvegicus) (UniProt P07943). Nature of the experiment: Compound was tested for 50% inhibition of crude aldose reductase obtained from rat lens.
The compound `O=C(O)Cn1ccccc1=O` displayed an inhibition of 33%.

The target is the same in a further experiment. The experiment in a line: Compound was tested for inhibition of crude aldose reductase obtained from rat lens, at the concentration of 100 uM; Inactive.
Consider `CCOC(=O)Cn1c(=O)cc(C)c2ccccc21`, for which the inhibition entry was “inactive”.
